This note sets out measurements from patent US11780893B2, “Kv1.3 blockers” (Zealand Pharma A/S, priority 2019, dated 2023).

Bridge positions count the residues as written; N and C are the ends. Peptide text beside a SMILES is read from it.

The target in assay [1] is T1, human Kv1.3 voltage-gated K+ channel (Homo sapiens, UniProt P22001).
T1 construct: host or cells: CHO-DUKX
In words: cell-based. Particulars: inhibition of thallium flux, CHO-DUKX cells with human Kv1.3; read-out: IC50.

The target in another assay is T2, Kv1.1 (Homo sapiens, UniProt Q09470).
T2 construct: expressed in transfected cells; host or cells: Chinese Hamster Ovary (CHO)
T2 sequence (Q09470 whole entry): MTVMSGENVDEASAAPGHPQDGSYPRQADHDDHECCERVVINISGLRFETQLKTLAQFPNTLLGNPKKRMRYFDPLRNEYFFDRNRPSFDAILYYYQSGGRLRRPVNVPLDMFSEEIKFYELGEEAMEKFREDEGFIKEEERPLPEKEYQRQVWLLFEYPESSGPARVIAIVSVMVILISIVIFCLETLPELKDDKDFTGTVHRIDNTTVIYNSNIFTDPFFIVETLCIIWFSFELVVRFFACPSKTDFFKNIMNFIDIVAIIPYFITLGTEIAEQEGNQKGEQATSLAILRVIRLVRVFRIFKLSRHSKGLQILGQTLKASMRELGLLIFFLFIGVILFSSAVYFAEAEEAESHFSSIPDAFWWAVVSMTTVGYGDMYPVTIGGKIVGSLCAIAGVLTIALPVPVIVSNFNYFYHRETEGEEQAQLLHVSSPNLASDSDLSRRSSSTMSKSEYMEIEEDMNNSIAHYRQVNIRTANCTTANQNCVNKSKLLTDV
The experiment in a line: cell-based. Particulars: for IC50: CHO cells, whole-cell patch clamp, read-out: Potency IC50 (nM) Kv1.1; for Selectivity Kv1.1/Kv1.3: ratio IC50[Kv1.1]/IC50[Kv1.3]. On the technique in general: Patch clamp records ionic current or voltage across a cell membrane.

The target in another assay is T3, Kv1.2 (Homo sapiens, UniProt P16389).
T3 construct: expressed in transfected cells; host or cells: Chinese Hamster Ovary (CHO)
T3 sequence (P16389 whole entry): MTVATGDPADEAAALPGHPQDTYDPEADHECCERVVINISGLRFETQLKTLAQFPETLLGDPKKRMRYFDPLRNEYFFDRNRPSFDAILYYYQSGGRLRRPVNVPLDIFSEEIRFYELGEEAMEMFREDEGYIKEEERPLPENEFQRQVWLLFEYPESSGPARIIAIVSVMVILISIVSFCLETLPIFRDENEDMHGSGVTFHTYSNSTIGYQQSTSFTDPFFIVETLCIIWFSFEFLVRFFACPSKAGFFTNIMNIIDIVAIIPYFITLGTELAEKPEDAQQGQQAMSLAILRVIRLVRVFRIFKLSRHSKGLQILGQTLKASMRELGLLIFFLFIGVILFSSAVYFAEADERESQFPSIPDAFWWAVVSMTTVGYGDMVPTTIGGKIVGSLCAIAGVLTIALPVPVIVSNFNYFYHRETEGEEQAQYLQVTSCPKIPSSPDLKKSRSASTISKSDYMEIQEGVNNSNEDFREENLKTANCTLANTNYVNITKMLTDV
The experiment in a line: cell-based. Particulars: CHO cells, whole-cell patch clamp; read-out: Potency IC50 (nM) Kv1.2.

For a further assay, the target named is T4, Kv1.3 (Homo sapiens, UniProt P22001).
T4 construct: expressed in transfected cells; host or cells: Chinese Hamster Ovary (CHO)
T4 sequence (P22001 whole entry): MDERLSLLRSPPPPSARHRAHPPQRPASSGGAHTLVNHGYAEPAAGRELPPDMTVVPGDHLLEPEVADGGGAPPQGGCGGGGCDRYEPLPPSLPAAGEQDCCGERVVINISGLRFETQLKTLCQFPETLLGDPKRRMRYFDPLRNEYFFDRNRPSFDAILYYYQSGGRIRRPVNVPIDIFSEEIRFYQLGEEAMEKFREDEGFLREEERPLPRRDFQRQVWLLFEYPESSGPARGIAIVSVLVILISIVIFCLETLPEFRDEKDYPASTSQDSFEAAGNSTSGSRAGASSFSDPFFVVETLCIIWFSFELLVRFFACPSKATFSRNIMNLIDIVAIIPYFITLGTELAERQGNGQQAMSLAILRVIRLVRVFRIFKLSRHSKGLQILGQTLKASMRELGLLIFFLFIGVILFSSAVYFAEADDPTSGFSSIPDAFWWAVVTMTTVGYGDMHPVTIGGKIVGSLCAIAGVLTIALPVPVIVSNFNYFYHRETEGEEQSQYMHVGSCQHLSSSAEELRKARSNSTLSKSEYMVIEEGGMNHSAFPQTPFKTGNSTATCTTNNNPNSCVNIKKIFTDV
The experiment in a line: cell-based. Particulars: CHO cells, whole-cell patch clamp; read-out: Potency IC50 (nM) Kv1.3.

The target of the next assay is T5, Kv1.6 (Homo sapiens, UniProt P17658).
T5 construct: expressed in transfected cells; host or cells: Chinese Hamster Ovary (CHO)
T5 sequence (P17658 whole entry): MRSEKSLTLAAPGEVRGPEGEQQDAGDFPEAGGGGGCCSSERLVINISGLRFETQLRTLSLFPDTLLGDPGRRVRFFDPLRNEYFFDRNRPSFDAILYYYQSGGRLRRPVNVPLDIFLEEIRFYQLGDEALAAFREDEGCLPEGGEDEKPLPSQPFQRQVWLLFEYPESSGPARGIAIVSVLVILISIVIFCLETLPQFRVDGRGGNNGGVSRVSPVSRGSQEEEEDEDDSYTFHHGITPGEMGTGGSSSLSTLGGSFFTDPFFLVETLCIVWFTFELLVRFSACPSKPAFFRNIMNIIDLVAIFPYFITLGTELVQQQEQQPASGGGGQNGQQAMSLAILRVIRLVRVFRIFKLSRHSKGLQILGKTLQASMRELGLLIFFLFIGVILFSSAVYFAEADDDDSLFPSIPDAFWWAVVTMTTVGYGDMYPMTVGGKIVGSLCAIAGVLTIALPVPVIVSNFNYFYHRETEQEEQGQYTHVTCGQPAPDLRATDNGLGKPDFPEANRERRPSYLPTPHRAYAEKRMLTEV
In words: cell-based. Particulars: CHO cells, whole-cell patch clamp; read-out: Potency IC50 (nM) Kv1.6.

In assay [2] the test system is Human peripheral blood mononuclear cells (PBMCs). The experiment in a line: IL-2 release from anti-CD3 stimulated human PBMCs (Example 4a). It is filed as cell-based. Particulars: geometric mean, at least 4 replicates, read-out: anti-CD3 PBMC/IL-2 IC50. The method, then:
Human peripheral blood mononuclear cells (PBMCs) were used to assess the effects of Kv1.3 blockers on T-cell activation as determined by IL-2 (cytokine) release after stimulation with anti-CD3.
Human PBMCs were obtained from Precision for Medicine (Frederick, Md.). Cells from 5 donors were used. Plate-bound anti-CD3 was used to stimulate bulk T cells in the PBMC preparations. Briefly, 96-well plates were coated with anti-CD3 antibody for 2 hrs at 37° C., using 50 μL of a 0.5 μg/mL anti-CD3 solution diluted in 1×PBS. Thereafter the plates were washed twice.
Finally, 1×10^5 PBMCs were added to each well in a volume of 100 μL, giving a final volume of 200 μL per well. The plates were incubated for 20-24 hours in a 37° C./5% CO2 incubator. After centrifugation of the plates, 25 μl supernatant was transferred to IL-2 detection plates (MSD Human IL-2 Tissue Culture Kit, cat #K151AHB-2) and IL-2 was measures as described by the manufacturer (Meso Scale Discovery, Rockville, Md., USA).
Results are shown in Table 4a as geometric mean of IC50 values obtained from anti-CD3 stimulated human PBMC assays. All values derive from at least 4 replicates.

T1 sequence (P22001 whole entry): as the sequence (P22001 whole entry) above

As to `CC[C@H](C)[C@@H]1NC(=O)[C@H](C)NC(=O)[C@H](CC(=O)O)NC(=O)[C@H](CC(C)C)NC(=O)[C@@H]2CSSC[C@@H](C(=O)N[C@@H](Cc3ccc(O)cc3)C(=O)N3CCC[C@H]3C(=O)N[C@@H](CCCNC(=N)N)C(N)=O)NC(=O)[C@H](CCCCN)NC(=O)[C@@H]3CSSC[C@H](NC(=O)[C@H](CCC(=O)O)NC(=O)[C@H](C(C)C)NC(=O)[C@H](CO)NC(=O)[C@H](C)NC(=O)[C@H](CO)NC(=O)[C@@H](NC(=O)[C@H](CCCNC(=N)N)NC(=O)[C@H](CCSC)NC(=O)[C@H](CC(=O)O)NC(=O)[C@H](CCSC)NC(=O)[C@@H](N)CC(N)=O)CSSC[C@H](NC(=O)[C@H](CCCCN)NC(=O)CNC(=O)[C@H](Cc4ccccc4)NC(=O)[C@H]([C@@H](C)CC)NC(=O)[C@H](CO)NC(=O)CNC1=O)C(=O)N[C@@H](CCSC)C(=O)N[C@@H](CC(N)=O)C(=O)N[C@@H](CCCCN)C(=O)N[C@@H](CCCCN)C(=O)N3)C(=O)N[C@@H](CCCCN)C(=O)N[C@@H](CCC(N)=O)C(=O)N[C@@H](CCCCN)C(=O)N2` [Compound 20] (H-NMDMRCSASVECKQKCLDAIGSIFGKCMNKKCKCYPR-NH2; disulfide 6-27, 12-32, 16-34), the IC50 in assay [1] was 0.13 nM; on Kv1.1, above 3000 nM; at Kv1.2, 99 nM; on Kv1.3, 0.21 nM; at Kv1.6 it was 2530 nM; in assay [2], 0.1 nM. Further, the “Selectivity Kv1.1/Kv1.3” value on Kv1.1 is given as above 14300.

Turning to `CC[C@H](C)[C@@H]1NC(=O)[C@H](C)NC(=O)[C@H](CCCCN)NC(=O)[C@H](CC(C)C)NC(=O)[C@@H]2CSSC[C@@H](C(=O)N[C@@H](Cc3ccc(O)cc3)C(=O)N3CCC[C@H]3C(=O)N[C@@H](CCCNC(=N)N)C(N)=O)NC(=O)[C@H](CCCCN)NC(=O)[C@@H]3CSSC[C@H](NC(=O)[C@H](CCC(=O)O)NC(=O)[C@H](C(C)C)NC(=O)[C@H](CO)NC(=O)[C@H](C)NC(=O)[C@H](CO)NC(=O)[C@@H](NC(=O)[C@H](CCCNC(=N)N)NC(=O)[C@H](CCSC)NC(=O)[C@H](CC(=O)O)NC(=O)[C@H](CCSC)NC(=O)[C@@H](N)CC(N)=O)CSSC[C@H](NC(=O)[C@H](CCCCN)NC(=O)CNC(=O)[C@H](Cc4ccccc4)NC(=O)[C@H](CCCNC(=N)N)NC(=O)[C@H](CO)NC(=O)CNC1=O)C(=O)N[C@@H](CCSC)C(=O)N[C@@H](CC(N)=O)C(=O)N[C@@H](CCCCN)C(=O)N[C@@H](CCCCN)C(=O)N3)C(=O)N[C@@H](CCCCN)C(=O)N[C@@H](CCC(N)=O)C(=O)N[C@@H](CCCCN)C(=O)N2` [Compound 35] (H-NMDMRCSASVECKQKCLKAIGSRFGKCMNKKCKCYPR-NH2; disulfide 6-27, 12-32, 16-34), the IC50 in assay [1] is 0.077 nM; on Kv1.1, above 3000 nM; on Kv1.2, 18 nM; on Kv1.3 it was 0.2 nM; on Kv1.6 it was 192 nM; in assay [2], 0.1 nM. For the same molecule, the “Selectivity Kv1.1/Kv1.3” value on Kv1.1 is given as above 15000.
